How the values were obtained:
5-HT transporter (SERT) = 5-HT transporter (SERT) (Homo sapiens (Human), UniProt P31645); details: cited from earlier work
[1] = Plasma stability assay, human plasma; assay type: in vitro ADME; details: human, 10 µM
Experimental: (§1) Compound stability in rat and human plasma was measured by incubating compound with rat or human plasma at 37° C. in a microwell plate for sequential time points, monitoring pro-drug disappearance and metabolite appearance (mesembranol or 6-epi-mesembranol). A 2 mM stock solution of test compounds were prepared by dissolving appropriate amount of compounds in DMSO. The 2 mM stock was further diluted 200-folds in rat or human plasma to attain a final concentration of 10 μM respectively (0.5% DMSO). 50 μL aliquots of positive controls and test compounds spiked into rat or human plasma (n=2) were added to a pre-warmed plate (37° C.) and shaken at 50 rpm. At each respective time point, the reaction was stopped by adding 500 μL of acetonitrile containing internal standards (100 nM aprozolam, 200 nM caffeine, 100 nM tolbutamide). All samples were vortexed for 10 minutes, followed by centrifugation at 3,220 g for 30 minutes to precipitate proteins. 100 μL of the supernatant is transferred to a new plate. The supernatant will be diluted with ultrapure water according to the LC-MS signal response and peak shape. The concentrations of test compounds and positive control were quantified in the test samples using LC-MS/MS. Results reported as % of prodrug compound remaining at time point, and % of metabolite (mesembranol or 6-epi-mesembranol,) accumulated at time point.

[2] = Plasma stability assay, rat plasma; assay type: in vitro ADME; details: rat, 10 µM
Experimental: as §1

| Structure (SMILES) | nH, 5-HT transporter (SERT) (5-HT transporter (SERT); Hill coefficient of concentration response curves) | Ki (5-HT transporter (SERT); concentration response curves, binding) | Prodrug (%) ([1]; 0 min) | Prodrug (%) ([1]; 10 min) | Prodrug (%) ([1]; 30 min) | Prodrug (%) ([1]; 60 min) | Prodrug (%) ([1]; 120 min) | Prodrug (%) ([1]; 240 min) | Prodrug (%) ([2]; 0 min) | Prodrug (%) ([2]; 10 min) | Prodrug (%) ([2]; 30 min) | Prodrug (%) ([2]; 60 min) | Prodrug (%) ([2]; 120 min) | Prodrug (%) ([2]; 240 min) |
| --- | --- | --- | --- | --- | --- | --- | --- | --- | --- | --- | --- | --- | --- | --- |
| COc1ccc(C23C=CC(O)CC2N(C)CC3)cc1OC (centres unmarked) [Mesembrenol] | 1.1 | 62 nM |  |  |  |  |  |  |  |  |  |  |  |  |
| COc1ccc([C@@]23CC[C@@H](OCOC(=O)C(C)(C)C)C[C@@H]2N(C)CC3)cc1OC [Compound 207, (((3aS,6R,7aS)-3a-(3,4-dimethoxyphenyl)-1-methyloctahydro-1H-indol-6-yl)oxy)methyl pivalate] |  |  | 100.0% | 42.0% | 6.9% | 1.6% | 0.7% | 0.1% | 100.0% | 26.5% | 0.5% | 0.0% | 0.0% | 0.0% |
| CCCC(=O)O[C@H]1CC[C@@]2(c3ccc(OC)c(OC)c3)CCN(C)[C@H]2C1 [Compound 106, (3aS,6S,7aS)-3a-(3,4-dimethoxyphenyl)-1-methyloctahydro-1H-indol-6-yl butyrate] |  |  | 100.00% | 93.04% | 87.33% | 79.39% | 67.04% | 50.22% | 100.0% | 39.9% | 2.75% | 0.7% | 0.2% | 0.1% |
| CCCC(=O)OC1CC[C@@]2(c3ccc(OC)c(OC)c3)CCN(C)[C@H]2C1 (stereo in doubt) [Compound 206, (3aS,6S,7aS)-3a-(3,4-dimethoxyphenyl)-1-methyloctahydro-1H-indol-6-yl butyrate] |  |  | 100.0% | >99.0% | 92.7% | 83.8% | 79.1% | 68.0% | 100.0% | 0.8% | 0.1% | 0.0% | 0.0% | 0.0% |

— patent US20240409566A1, “DELIVERY OF THERAPEUTIC ALKALOID COMPOUNDS” (priority 2022, published 2024)
